The subject of experiment [1] is HCT-8 (human colon adenocarcinoma) cells. The experiment in a line: in vitro activity against human colon adenocarcinoma (HCT-8), cell count. It counts as cell-based. The settings on record: HCT-8 human colon adenocarcinoma cells, 60-65 hrs incubation with compound, Coulter counter cell count as percentage of controls; read-out: ID50 (the source's name). On the procedure:
HCT-8 (human colon adenocarcinoma) cells are trypsinized using Trypsin-EDTA. A single cell suspension is achieved by passing the cells through a 26 gauge needle with a 20 cc syringe. A cell suspension is prepared using RPMI 1640 growth medium (available from Gibco Laboratories) +10% fetal calf serum +50 µg/ml garamycin with a cell concentration of approximately 30,000 cells/ml. The cell suspension is dispensed in Linbro 24-well plates; 1 ml/well. The plates are incubated for approximately 48 hrs at 37°C in a 5% C02 atmosphere. At this time test compounds are added in the appropriate concentration. Five µl of the 200 µg/ml stock solution is added to each well in a primary test. Ten pl of the appropriate dilution is added to each well for a titration test. The plates are reincubated an additional 60-65 hrs at 37°C in a 5% C02 atmosphere. The test is read by lysing the cells using a mix of cationic surfactant, glacial acetic acid and sodium chloride. […] of the lysed cell suspension from each well is added to 8 ml of diluent. Each sample is read with a Coulter counter (ZBI model). The activity of each sample is measured as a percentage of the controls and the data is reported as ID50, that is the molar quantity of drug required to kill 50% of the tumor cells.

For experiment [2], the system named is Aerobacter aerogenes. Put plainly: agar plate paper-disc inhibition zone screening. It counts as cell-based. The settings on record: Klebsiella aerogenes, read-out: Inhibition Zone Diameter mm (Dose mg/ml) A. Aerogenes; for zone of inhibition at 3000 µg/mL: Dose 3.0 mg/ml; for zone of inhibition at 500 µg/mL: Dose 0.5 mg/ml. A digest of the protocol:
(§1)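 Read-out: diameter (mm) of the inhibition zone around 12.7 mm paper discs after overnight (18-20 h) incubation at 37°C. Discs carried compound at 3,000-10 mcg/ml in alcohol, DMSO or DMF, final solvent <10%. Seeded agar trays used saline-suspended cells adjusted to 20-35% transmittancy.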

Experiment [3] has as its system Bacillus subtilis. Put plainly: agar plate paper-disc inhibition zone screening. The format is cell-based. The settings on record: read-out: Inhibition Zone Diameter mm (Dose mg/ml) B. Subtilis; for zone of inhibition at 3000 µg/mL: Dose 3.0 mg/ml. A digest of the protocol:
as §1

Experiment [4] has as its system Escherichia coli. Put plainly: agar plate paper-disc inhibition zone screening. The settings on record: read-out: Inhibition Zone Diameter mm (Dose mg/ml) E. Coli; for zone of inhibition at 3000 µg/mL: Dose 3.0 mg/ml; for zone of inhibition at 1000 µg/mL: Dose 1.0 mg/ml. The format is cell-based. A digest of the protocol:
as §1

The subject of experiment [5] is Streptococcus faecalis. The experiment in a line: agar plate paper-disc inhibition zone screening. The format is cell-based. The settings on record: Enterococcus faecalis; Dose 3.0 mg/ml; read-out: Inhibition Zone Diameter mm (Dose mg/ml) S. Faecalis. A digest of the protocol: as §1
The subject of experiment [6] is Penicillium avellaneum. Put plainly: agar plate paper-disc inhibition zone screening. The settings on record: Hamigera avellanea; Dose 3.0 mg/ml; read-out: Inhibition Zone Diameter mm (Dose mg/ml) P. Avellaneum. It counts as cell-based. In outline:
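Mycelia and spores from a six-day 28°C agar culture, suspended in saline with 0.05% Tween 80 at 20% transmittancy, were seeded into molten agar trays. Compounds at 3,000, 1,000, 500, 100 and 10 mcg/ml (solvent <10%) were applied on 12.7 mm paper discs. After at least 20-24 h incubation, inhibition zone diameter was measured in mm.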

Experiment [7] has as its system lymphocytic leukemia P388. The experiment in a line: in vivo lymphocytic leukemia P388 test. Also noted: species or system mice. The settings on record: Mus musculus, P388, ip, 720 h, two single doses four days apart, read-out: T/C × 100 (Percent); for response vs control in vivo at 3.12 mg/kg: P388, Dose 3.12 mg/kg intraperitoneally; for response vs control in vivo at 6.25 mg/kg: P388, Dose 6.25 mg/kg intraperitoneally; for response vs control in vivo at 12.5 mg/kg: P388, Dose 12.5 mg/kg intraperitoneally; for response vs control in vivo at 25 mg/kg: P388, Dose 25 mg/kg intraperitoneally; for response vs control in vivo at 100 mg/kg: P388, Dose 100 mg/kg intraperitoneally; for response vs control in vivo at 50 mg/kg: P388, Dose 50 mg/kg intraperitoneally. In outline:
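CD2F mice (6–7 per group) were inoculated intraperitoneally with P388 leukemia ascitic cells. Compounds were then given i.p. as two doses four days apart at various levels. Survival over 30 days was expressed as treated/control time ratio, efficacy criterion T/C×100 >125%.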

As to `O=C1c2cccc(O)c2-c2nn(CCNCCO)c3ccc(NCCNCCO)c1c23`, the IC50 in experiment [1] worked out at 1100 nM.

As to `CNCCNc1ccc2c3c(nn2CCNCCO)-c2cccc(O)c2C(=O)c13`, in experiment [1], the IC50 is 27 nM.

Regarding `O=C1c2c(O)cccc2-c2nn(CCNCCO)c3ccc(NCCNCCO)c1c23`, in experiment [1], the IC50 is 61 nM.

Consider `NCCn1nc2c3c(c(NCCCNCCO)ccc31)C(=O)c1c(O)ccc(O)c1-2`, for which the IC50 in experiment [1] worked out at 280 nM.

For the compound `NCCCNc1ccc2c3c(nn2CCN)-c2c(O)ccc(O)c2C(=O)c13`, the IC50 in experiment [1] stood at 850 nM.

With `CNCCNc1ccc2c3c(nn2CCNCCO)-c2c(O)ccc(O)c2C(=O)c13`, the IC50 in experiment [1] stood at 400 nM.

For `CN(CCO)CCn1nc2c3c(c(NCCNCCO)ccc31)C(=O)c1c(O)ccc(O)c1-2`, the IC50 in experiment [1] is 450 nM.

For `CCN(CC)CC(O)Cn1nc2c3c(c(NCCN)ccc31)C(=O)c1c(O)ccc(O)c1-2` (stereo not drawn), in experiment [1], the IC50 came out at 460 nM.

On to `CCN(CC)CC(O)Cn1nc2c3c(c(NCCNCCO)ccc31)C(=O)c1c(O)ccc(O)c1-2` (stereo not drawn), for which the IC50 in experiment [1] was 690 nM.

As to `CCN(CC)CCn1nc2c3c(c(NCCNC)ccc31)C(=O)c1c(O)ccc(O)c1-2`, in experiment [1], the IC50 was 120 nM.

Consider `CN1CCN(c2ccc3c4c(nn3CCNCCO)-c3c(O)ccc(O)c3C(=O)c24)CC1`, for which the IC50 in experiment [1] was 540 nM.

Take `CN(C)CCn1nc2c3c(c(NCCNCCO)ccc31)C(=O)c1c(O)ccc(O)c1-2`: the IC50 in experiment [1] is 180 nM.

For `NCCNc1ccc2c3c(nn2CCN)-c2c(O)ccc(O)c2C(=O)c13` [7,10-(OH)2; (CH2)2NH2·2HCl; NH(CH2)2NH2], the IC50 in experiment [1] was 910 nM.

On to `CN(C)CCn1nc2c3c(c(NCCN)ccc31)C(=O)c1c(O)ccc(O)c1-2` [7,10-(OH)2; (CH2)2NMe2·2HCl; NH(CH2)2NH2], for which the IC50 in experiment [1] was determined as 140 nM.

Regarding `NCCCCNc1ccc2c3c(nn2CCNCCO)-c2c(O)ccc(O)c2C(=O)c13` [Example 59, 5-[(4-Aminobutyl)amino]-7,10-dihydroxy-2-[2-[(2-hydroxyethyl)amino]ethyl]anthra[1,9-cd]pyrazol-6(2H)-one], the zone of inhibition at 3000 µg/mL is 16 mm in experiment [2]; 0 mm in experiment [3]; 15 mm in experiment [4]; 0 mm in experiment [5]; 0 mm in experiment [6]. In addition, the response vs control in vivo at 3.12 mg/kg in experiment [7] turned out to be 130%. Further, the response vs control in vivo at 6.25 mg/kg in experiment [7] amounted to 131%. The response vs control in vivo at 12.5 mg/kg in experiment [7] stood at 139%. Further, in experiment [7], the response vs control in vivo at 25 mg/kg was determined as 150%. The response vs control in vivo at 100 mg/kg in experiment [7] was 172%.

Take `NCCCCCNc1ccc2c3c(nn2CCNCCO)-c2c(O)ccc(O)c2C(=O)c13` [Example 60, 5-[(5-Aminopentyl)amino]-7,10-dihydroxy-2-[2-[(2-hydroxyethyl)amino]ethyl]anthra[1,9-cd]pyrazol-6(2H)-one]: the zone of inhibition at 3000 µg/mL in experiment [2] came to 0 mm; in experiment [3] it was 0 mm; in experiment [4] it was 14 mm; in experiment [5], 0 mm; in experiment [6] it was 0 mm. In addition, the response vs control in vivo at 12.5 mg/kg in experiment [7] was determined as 127%. Moreover, the response vs control in vivo at 25 mg/kg in experiment [7] turned out to be 127%. Further, the response vs control in vivo at 50 mg/kg in experiment [7] was determined as 127%. The response vs control in vivo at 100 mg/kg in experiment [7] worked out at 150%.

With `O=C1c2c(O)ccc(O)c2-c2nn(CCNCCO)c3ccc(NCCCNCCO)c1c23` [Example 62, 7,10-Dihydroxy-2-[2-[(2-hydroxyethyl)amino]ethyl]-5-[[3-[(2-hydroxyethyt)amino]propyl]amino]anthra[1,9-cd] pyrazol-6(2H)-one], the zone of inhibition at 500 µg/mL in experiment [2] and in experiment [4] (Dose 0.5 mg/ml) was 14 mm throughout. The zone of inhibition at 1000 µg/mL in experiment [3] (Dose 1.0 mg/ml) is 16 mm. In addition, the zone of inhibition at 3000 µg/mL in experiment [5] is 14 mm; in experiment [6], 0 mm. Moreover, the response vs control in vivo at 3.12 mg/kg in experiment [7] worked out at 173%.

Take `CN(C)CCNCCNc1ccc2c3c(nn2CCNCCO)-c2c(O)ccc(O)c2C(=O)c13` [Example 63]: the figures for the zone of inhibition at 1000 µg/mL in experiment [2] (Dose 1.0 mg/ml) and in experiment [4] were 14 mm and 15 mm, respectively. The values for the zone of inhibition at 3000 µg/mL in experiment [3], in experiment [5] and in experiment [6] were 18 mm, 16 mm and 0 mm, respectively. Also, the response vs control in vivo at 3.12 mg/kg in experiment [7] stood at 152%. In addition, the response vs control in vivo at 6.25 mg/kg in experiment [7] is 169%.

Regarding `CN1CCN(c2ccc3c4c(nn3CCNCCO)-c3c(O)ccc(O)c3C(=O)c24)CC1` [Example 64, 7,10-Dihydroxy-2-[2-[(2-hydroxyethyl)amino]ethyl]-5-(4-methyl-1-piperazinyl)anthra[1,9-cd]pyrazol-6(2H)-one], the zone of inhibition at 500 µg/mL in experiment [2] is 17 mm. The zone of inhibition at 3000 µg/mL in experiment [3] worked out at 0 mm. Besides, the zone of inhibition at 1000 µg/mL in experiment [4] came out at 14 mm. Also, the zone of inhibition at 3000 µg/mL in experiment [5] amounted to 0 mm. Further, the zone of inhibition at 3000 µg/mL in experiment [6] amounted to 0 mm. For the same compound, in experiment [7], the response vs control in vivo at 6.25 mg/kg came out at 163%, the response vs control in vivo at 12.5 mg/kg stood at 169% and the response vs control in vivo at 25 mg/kg was 150%.

Turning to `CN(C)CCN(C)c1ccc2c3c(nn2CCNCCO)-c2c(O)ccc(O)c2C(=O)c13` [Example 65, 5-([2-(Dimethylamino)ethyl]methylamino]-7,10-dihydroxy-2-[2-[(2-hydroxyethyl)amino]ethyl]anthra[1,9-cd]pyrazol-6(2H)-one], in experiment [2], the zone of inhibition at 500 µg/mL turned out to be 16 mm. Besides, the zone of inhibition at 3000 µg/mL in experiment [3] was 0 mm; in experiment [4], 15 mm; in experiment [5], 0 mm; in experiment [6], 0 mm. Besides, in experiment [7], the response vs control in vivo at 6.25 mg/kg was 179%. Moreover, the response vs control in vivo at 12.5 mg/kg in experiment [7] came out at 188%.

For the compound `COCCn1nc2c3c(c(NCCNCCO)ccc31)C(=O)c1c(O)ccc(O)c1-2` [Example 76, 7,10-Dihydroxy-5-[[2-[(2-hydroxyethyl)amino]ethyl]amino]-2-(2-methoxyethyl)anthra[1,9-cd]pyrazol-6(2H)-one], the zone of inhibition at 3000 µg/mL in experiment [2] came out at 14 mm. Further, in experiment [3], the zone of inhibition at 3000 µg/mL was found to be 14 mm. For the same compound, the zone of inhibition at 1000 µg/mL in experiment [4] came out at 14 mm. Also, the zone of inhibition at 3000 µg/mL in experiment [5] worked out at 0 mm. In addition, in experiment [6], the zone of inhibition at 3000 µg/mL was found to be 0 mm. Further, in experiment [7], the response vs control in vivo at 12.5 mg/kg was found to be 127%, the response vs control in vivo at 25 mg/kg came to 127%, the response vs control in vivo at 50 mg/kg amounted to 135% and the response vs control in vivo at 100 mg/kg came out at 139%.

On to `CN(C)CCCn1nc2c3c(c(NCCN)ccc31)C(=O)c1c(O)ccc(O)c1-2` [Example 94, 5-[(2-Aminoethyl)amino]-2-[3-(dimethylamino)propyl]-7,10-dihydroxyanthra[1,9-cd]pyrazol-6(2H)-one], for which the zone of inhibition at 3000 µg/mL in experiment [2] came to 15 mm; in experiment [3], 0 mm; in experiment [4], 15 mm; in experiment [5], 0 mm; in experiment [6], 0 mm. For the same compound, the response vs control in vivo at 3.12 mg/kg in experiment [7] was 191%. In addition, the response vs control in vivo at 6.25 mg/kg in experiment [7] was 186%. For the same compound, the response vs control in vivo at 12.5 mg/kg in experiment [7] turned out to be 224%.
